Reference: patent US10785975B2, “Water and feed antimicrobial preservative” (priority 2009, dated 2020)

Test system: Salmonella typhimurium
Assay: Example 1: effect of pH buffering of acetic and propionic acid on antimicrobial activity in water
Format: cell-based
Details: for MIC at 24 HR / MIC at 4 Hr: Minimum Inhibitory Concentrations, by linear regression over 0.025-0.1% acid solutions
Procedure: Propionic and acetic acids were buffered with ammonium hydroxide to pHs ranging from 1 to 7. Acid contents of the buffered solutions were determined by a weight to weight ratio calculation to obtain the same acid content in the test solutions. […] The pHs of the deionized water solutions were recorded and any problems with solubility noted.
100 ul of a nutrient broth culture of Salmonella typhimurium was added to each dilution tube. After addition, tubes were vortexed and allowed to stand. At 4 and 24 hours after addition of the inoculum, 100 ul of the solution was plated on Standard Plate agar (triplicate plates). Plates were incubated at 37° C. for 24 hours prior to enumeration. The minimum effective dose of each acid was determined by linear regression.

[1] = Product Conc. 0.025 (% acid solution in water)
[2] = Product Conc. 0.05 (% acid solution in water)
[3] = Product Conc. 0.075 (% acid solution in water)
[4] = Product Conc. 0.1 (% acid solution in water)

Row | Compound | Salmonella at time Interval 4 hr % reduction [1] [%] | Salmonella at time Interval 4 hr cfu/g [1] [cfu/g] | Salmonella at time Interval 24 hr % reduction [1] [%] | Salmonella at time Interval 24 hr cfu/g [1] [cfu/g] | Salmonella at time Interval 4 hr % reduction [2] [%] | Salmonella at time Interval 4 hr cfu/g [2] [cfu/g] | Salmonella at time Interval 24 hr % reduction [2] [%] | Salmonella at time Interval 24 hr cfu/g [2] [cfu/g] | Salmonella at time Interval 4 hr % reduction [3] [%] | Salmonella at time Interval 4 hr cfu/g [3] [cfu/g] | Salmonella at time Interval 24 hr % reduction [3] [%] | Salmonella at time Interval 24 hr cfu/g [3] [cfu/g] | Salmonella at time Interval 4 hr % reduction [4] [%] | Salmonella at time Interval 4 hr cfu/g [4] [cfu/g] | Salmonella at time Interval 24 hr % reduction [4] [%] | Salmonella at time Interval 24 hr cfu/g [4] [cfu/g] | also measured
1 | CC(=O)O [Acetic pH 6, Acetic acid] | 0 | 1500 | 1 | 1167 | 0 | 1767 | 0 | 1400 | 0 | 1667 | 0 | 1400 | 0 | 1633 | 0 | 1433 | –
2 | CC(=O)O [Acetic pH 1, Acetic acid] | 41 | 883 | 91 | 107 | 50 | 750 | 99 | 7 | 59 | 617 | 99 | 17 | 65 | 520 | 99 | 7 | MIC at 24 HR (pH 1): 0.065
3 | CC(=O)O [Acetic pH 4, Acetic acid] | 29 | 1067 | 54 | 543 | 22 | 1167 | 66 | 407 | 27 | 1097 | 78 | 263 | 22 | 1167 | 84 | 183 | MIC at 4 Hr (pH 4): 0.207; MIC at 24 HR (pH 4): 0.096
4 | CCC(=O)O [Propionic pH 1, Propionic acid] | 20 | 1200 | 89 | 133 | 39 | 923 | 97 | 37 | 65 | 530 | 98 | 23 | 70 | 450 | 99 | 10 | MIC at 4 Hr (pH 1): 0.131; MIC at 24 HR (pH 1): 0.066
5 | CCC(=O)O [Propionic pH 4, Propionic acid] | 9 | 1367 | 48 | 615 | 20 | 1200 | 75 | 293 | 37 | 943 | 84 | 187 | 22 | – | 86 | 163 | MIC at 4 Hr (pH 4): 0.237; MIC at 24 HR (pH 4): 0.091
6 | CC(=O)O [Acetic pH 5, Acetic acid] | 16 | 1267 | 16 | 993 | 0 | 1533 | 26 | 873 | 9 | 1367 | 32 | 805 | 14 | 1300 | 49 | 597 | MIC at 4 Hr (pH 5): 0.238; MIC at 24 HR (pH 5): 0.210
7 | CCC(=O)O [Propionic pH 2, Propionic acid] | 29 | 1067 | 94 | 70 | 51 | 733 | 99 | 10 | 68 | 477 | 99 | 13 | 75 | 380 | 99 | 7 | MIC at 4 Hr (pH 2): 0.120; MIC at 24 HR (pH 2): 0.064
8 | CCC(=O)O [Propionic pH 5, Propionic acid] | 0 | >1505 | 33 | 793 | 7 | 1400 | 20 | 943 | 22 | 1167 | 47 | 630 | 46 | 817 | 53 | 557 | MIC at 4 Hr (pH 5): 0.170; MIC at 24 HR (pH 5): 0.165
9 | CC(=O)O [Acetic pH 2, Acetic acid] | 39 | 920 | 86 | 170 | 46 | 817 | 96 | 50 | 55 | 673 | 98 | 20 | 55 | 670 | 99 | 17 | MIC at 4 Hr (pH 2): 0.142; MIC at 24 HR (pH 2): 0.067
10 | CCC(=O)O [Propionic pH 6, Propionic acid] | 0 | >1505 | 0 | 1450 | 7 | 1400 | 10 | 1067 | 0 | >1505 | 0 | 1233 | 0 | 1700 | 0 | 1333 | –
11 | CC(=O)O [Acetic pH 7, Acetic acid] | 0 | 1567 | 0 | – | 0 | 1600 | 0 | 1433 | 2 | 1467 | 0 | 1433 | 0 | 1567 | 0 | – | –
